The values below come from ChEMBL document CHEMBL1131649, “A novel series of N-(hexahydro-1,4-diazepin-6-yl) and N-(hexahydroazepin- 3-yl)benzamides with high affinity for 5-HT3 and dopamine D2 receptors” (Bioorg Med Chem Lett, 1998).

What all share (format): cell membranes
The target in test [1] is T1, Serotonin 3 (5-HT3) receptor (Rattus norvegicus, UniProt P35563+Q9JJ16).
T1 sequence (P35563 whole entry): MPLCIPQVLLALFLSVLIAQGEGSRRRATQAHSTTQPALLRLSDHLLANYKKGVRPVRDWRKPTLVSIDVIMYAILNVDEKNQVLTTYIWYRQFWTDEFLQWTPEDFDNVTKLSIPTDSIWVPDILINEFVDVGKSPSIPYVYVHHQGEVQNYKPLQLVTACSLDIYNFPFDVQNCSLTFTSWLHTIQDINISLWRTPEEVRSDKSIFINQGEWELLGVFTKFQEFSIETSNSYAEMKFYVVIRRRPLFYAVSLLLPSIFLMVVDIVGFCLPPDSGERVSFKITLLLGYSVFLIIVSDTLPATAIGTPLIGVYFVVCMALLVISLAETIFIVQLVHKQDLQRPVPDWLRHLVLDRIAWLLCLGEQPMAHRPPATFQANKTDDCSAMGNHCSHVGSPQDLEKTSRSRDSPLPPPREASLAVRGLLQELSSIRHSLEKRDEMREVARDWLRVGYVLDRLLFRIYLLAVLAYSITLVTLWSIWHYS
T1 sequence (Q9JJ16 whole entry): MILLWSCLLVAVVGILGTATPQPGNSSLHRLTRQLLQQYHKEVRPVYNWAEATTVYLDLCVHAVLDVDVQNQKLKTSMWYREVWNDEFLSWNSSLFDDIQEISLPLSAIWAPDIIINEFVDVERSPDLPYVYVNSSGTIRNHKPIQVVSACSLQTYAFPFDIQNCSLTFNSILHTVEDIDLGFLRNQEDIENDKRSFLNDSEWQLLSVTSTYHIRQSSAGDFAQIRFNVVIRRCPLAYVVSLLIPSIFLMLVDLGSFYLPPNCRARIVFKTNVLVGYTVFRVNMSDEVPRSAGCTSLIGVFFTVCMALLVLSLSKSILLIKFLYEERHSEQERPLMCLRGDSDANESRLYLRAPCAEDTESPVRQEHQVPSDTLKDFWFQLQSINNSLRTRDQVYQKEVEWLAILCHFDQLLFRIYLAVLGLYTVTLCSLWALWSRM
The experiment in a line: Binding affinity against 5-hydroxytryptamine 3 receptor in rat cortical membrane using [3H]GR-65630 as radioligand.

Test [2] addresses T2, D(2) dopamine receptor (Rattus norvegicus, UniProt P61169). The experiment in a line: Binding affinity against dopamine D2 receptor in rat brain synaptic membrane using [3H]-spiperone as radioligand.
Test [3] addresses T2, D(2) dopamine receptor. The experiment in a line: Compound was tested for binding affinity against Dopamine receptor D2 in rat brain synaptic membrane using [3H]-spiperone as radioligand.

T2 sequence (P61169 whole entry): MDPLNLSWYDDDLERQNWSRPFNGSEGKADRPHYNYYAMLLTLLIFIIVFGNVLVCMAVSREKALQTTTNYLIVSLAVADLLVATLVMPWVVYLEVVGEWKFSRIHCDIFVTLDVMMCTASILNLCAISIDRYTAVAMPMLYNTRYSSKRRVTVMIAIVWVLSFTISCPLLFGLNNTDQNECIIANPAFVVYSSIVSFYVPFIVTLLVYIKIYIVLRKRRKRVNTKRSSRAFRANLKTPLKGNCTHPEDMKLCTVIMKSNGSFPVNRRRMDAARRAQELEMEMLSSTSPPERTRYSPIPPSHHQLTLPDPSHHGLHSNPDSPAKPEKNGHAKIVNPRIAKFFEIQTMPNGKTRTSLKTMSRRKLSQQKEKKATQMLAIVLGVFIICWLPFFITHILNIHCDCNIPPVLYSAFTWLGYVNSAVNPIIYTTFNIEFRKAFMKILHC

Take `CCN1CCN(C)CC(NC(=O)c2cc(Cl)c(NC)cc2OC)C1` (stereo unspecified): the IC50 (commonly the concentration that inhibits the measured activity by half) in test [1] turned out to be 4.8 nM; at D(2) dopamine receptor [2] it was 61 nM.
In the case of `CCCN1CCN(C)CC(NC(=O)c2cc(Cl)c(N)cc2OC)C1` (stereo unspecified), the results for the half-maximal inhibitory concentration (IC50) (in test [1]; at D(2) dopamine receptor [2]) were 24 nM and 218 nM, respectively.
In the case of `CCN1CCCCC(NC(=O)c2cc(Cl)c(N)cc2OC)C1` (stereo unspecified), the figures for the 50% inhibitory concentration (IC50) (in test [1]; at D(2) dopamine receptor [2]) were 33 nM and 39 nM, respectively.
Consider `CCN1CCN(C)C[C@H](NC(=O)c2cc(Cl)c(N)cc2OC)C1`, for which the figures for the IC50 (in test [1]; at D(2) dopamine receptor [2]) were 7 nM and 517 nM, respectively.
Consider `COc1cc(N)c(Cl)cc1C(=O)NC1CN(C)CCN(C)C1`, for which the half-maximal inhibitory concentration (IC50) in test [1] is 9.6 nM; at D(2) dopamine receptor [3] it was over 1000 nM.
The compound `Cc1nccn1CC1CCc2c(c3ccccc3n2C)C1=O` (stereo unspecified) [ONDANSETRON] yielded an IC50 at D(2) dopamine receptor [2] of over 1000 nM.
Regarding `CCN1CCCC[C@H](NC(=O)c2cc(Cl)c(N)cc2OC)C1`, the IC50 was 10 nM in test [1] and over 1000 nM at D(2) dopamine receptor [2].
On to `CCN1CCN(C)C[C@@H](NC(=O)c2cc(Cl)c(N)cc2OC)C1`, for which the IC50 in test [1] turned out to be 12 nM; at D(2) dopamine receptor [2], 87 nM.
For `CCN1CCCC[C@@H](NC(=O)c2cc(Cl)c(N)cc2OC)C1`, the IC50 was determined as 134 nM in test [1] and 19 nM at D(2) dopamine receptor [2].
For the compound `COc1cc(N)c(Cl)cc1C(=O)NC1CCCCN(C(C)C)C1` (stereo unspecified), the values for the concentration for half-maximal inhibition (IC50) (in test [1]; at D(2) dopamine receptor [2]) were 640 nM and 87 nM, respectively.
For `CCN1CCCC[C@H](NC(=O)c2cc(Cl)c(NC)cc2OC)C1`, in that order: 4.5 nM and 367 nM.
`CCN1CCCC[C@@H](NC(=O)c2cc(Cl)c(NC)cc2OC)C1`: the IC50 in test [1] is 97 nM; at D(2) dopamine receptor [2], 4.5 nM.
As to `CCN1CCN(C)CC(NC(=O)c2cc(Cl)c(N)cc2OC)C1` (stereo unspecified), the 50% inhibitory concentration (IC50) was determined as 8.5 nM in test [1] and 127 nM at D(2) dopamine receptor [2].
Take `CCN1CCCCC(NC(=O)c2cc(Cl)c(NC)cc2OC)C1` (stereo unspecified): the values for the concentration for half-maximal inhibition (IC50) (in test [1]; at D(2) dopamine receptor [2]) were 6.6 nM and 11 nM, respectively.
Turning to `CCN1CCN(C)C[C@H](NC(=O)c2cc(Cl)c(NC)cc2OC)C1`, the IC50 in test [1] came out at 1.5 nM; at D(2) dopamine receptor [2], 320 nM.
In test [1], `COc1cc(N)c(Cl)cc1C(=O)NC1CCCCN(C)C1` (stereo unspecified) gave an IC50 of 36 nM.
Consider `CCCN1CCCCC(NC(=O)c2cc(Cl)c(N)cc2OC)C1` (stereo unspecified), for which the concentration for half-maximal inhibition (IC50) stood at 37 nM in test [1] and 57 nM on D(2) dopamine receptor [2].
In the case of `CCNc1cc(OC)c(C(=O)NC2CN(C)CCN(CC)C2)cc1Cl` (stereo unspecified), the figures for the half-inhibitory concentration (IC50) (in test [1]; at D(2) dopamine receptor [2]) were 1.9 nM and 181 nM, respectively.
Regarding `CCNc1cc(OC)c(C(=O)NC2CCCCN(CC)C2)cc1Cl` (stereo unspecified), the IC50 in test [1] was found to be 50 nM; on D(2) dopamine receptor [2] it was 25 nM.
